System: MV-4-11 cells
Experiment: Gene expression microarray analysis (Affymetrix PrimeView) and GSEA
Format: cell-based, human
Parameters: RFU PODN (11730768_x_at) / Fold change /veh PODN (11730768_x_at) / RFU LINC00158 (11744669_a_at) / Fold change /veh LINC00158 (11744669_a_at) / RFU DUSP10 (11751237_a_at) / Fold change /veh DUSP10 (11751237_a_at) / RFU ID3 (11757404_x_at) / Fold change /veh ID3 (11757404_x_at) / RFU PLEKHG5 (11737974_s_at) / Fold change /veh PLEKHG5 (11737974_s_at) / RFU LRRC4B (11730491_at) / Fold change /veh LRRC4B (11730491_at) / RFU GIMAP4 (11747438_a_at) / Fold change /veh GIMAP4 (11747438_a_at) / RFU KRT8 (11758183_x_at) / Fold change /veh KRT8 (11758183_x_at) / RFU CNN1 (11734310_a_at) / Fold change /veh CNN1 (11734310_a_at) / RFU VPS37D (11726825_at) / Fold change /veh VPS37D (11726825_at) / RFU C10orf10 (11716522_x_at) / Fold change /veh C10orf10 (11716522_x_at) / RFU KIR2DL2 /// KIR2DL4 /// KIR2DL5A /// KIR2DL5B /// KIR2DS1 /// KIR2DS2 /// KIR2DS3 /// KIR2DS4 /// KIR3DL3 /// KIR3DL3 /// KIR3DS1 (11738374_at) / Fold change /veh KIR2DL2 /// KIR2DL4 /// KIR2DL5A /// KIR2DL5B /// KIR2DS1 /// KIR2DS2 /// KIR2DS3 /// KIR2DS4 /// KIR3DL3 /// KIR3DL3 /// KIR3DS1 (11738374_at) / RFU C1QL1 (11718748_at) / Fold change /veh C1QL1 (11718748_at) / RFU TMPRSS4 (11747572_a_at) / Fold change /veh TMPRSS4 (11747572_a_at) / RFU HAMP (11756126_x_at) / Fold change /veh HAMP (11756126_x_at) / RFU RNFT2 (11725882_a_at) / Fold change /veh RNFT2 (11725882_a_at) / RFU NR4A2 (11747474_a_at) / Fold change /veh NR4A2 (11747474_a_at) / RFU ABCC12 (11746883_a_at) / Fold change /veh ABCC12 (11746883_a_at) / RFU TMEM136 (11760407_x_at) / Fold change /veh TMEM136 (11760407_x_at) / RFU CLDN22 /// WWC2 (11732394_at) / Fold change /veh CLDN22 /// WWC2 (11732394_at) / RFU HLA-DPB1 (11760878_x_at) / Fold change /veh HLA-DPB1 (11760878_x_at) / RFU SPINT1 (11716480_a_at) / Fold change /veh SPINT1 (11716480_a_at) / RFU GAP43 (11754022_s_at) / Fold change /veh GAP43 (11754022_s_at) / RFU A4GNT (11735810_at) / Fold change /veh A4GNT (11735810_at) / RFU PRB3 (11715151_x_at) / Fold change /veh PRB3 (11715151_x_at) / RFU TUBB4B (11761932_at) / Fold change /veh TUBB4B (11761932_at) / RFU CAPN14 (11732068_a_at) / Fold change /veh CAPN14 (11732068_a_at) / RFU TMCC2 (11721928_a_at) / Fold change /veh TMCC2 (11721928_a_at) / RFU IRGQ (11745062_a_at) / Fold change /veh IRGQ (11745062_a_at) / RFU FAM174B (11720279_a_at) / Fold change /veh FAM174B (11720279_a_at) / RFU TMPRSS4 (11748680_a_at) / Fold change /veh TMPRSS4 (11748680_a_at) / RFU FAM212B (11763350_a_at) / Fold change /veh FAM212B (11763350_a_at) / RFU PLEKHG5 (11743358_a_at) / Fold change /veh PLEKHG5 (11743358_a_at) / RFU ZSCAN30 (11745921_a_at) / Fold change /veh ZSCAN30 (11745921_a_at) / RFU CMKLR1 (11741424_a_at) / Fold change /veh CMKLR1 (11741424_a_at) / RFU LOC101060620 /// MAPK8IP1 (11723275_at) / Fold change /veh LOC101060620 /// MAPK8IP1 (11723275_at) / RFU SPTSSB (11747773_x_at) / Fold change /veh SPTSSB (11747773_x_at) / RFU PRSS12 (11739890_at) / Fold change /veh PRSS12 (11739890_at) / RFU BIN1 (11741810_x_at) / Fold change /veh BIN1 (11741810_x_at) / RFU WNT11 (11732464_a_at) / Fold change /veh WNT11 (11732464_a_at) / RFU C10orf10 (11716521_a_at) / Fold change /veh C10orf10 (11716521_a_at) / RFU C5orf56 (11738089_at) / Fold change /veh C5orf56 (11738089_at) / RFU CYB561 (11721691_x_at) / Fold change /veh CYB561 (11721691_x_at) / RFU ANKRD19P (11752326_a_at) / Fold change /veh ANKRD19P (11752326_a_at) / RFU OR2T12 /// OR2T33 /// OR2T8 (11738714_s_at) / Fold change /veh OR2T12 /// OR2T33 /// OR2T8 (11738714_s_at) / RFU VCAN (11748164_a_at) / Fold change /veh VCAN (11748164_a_at) / RFU JSRP1 (11732532_at) / Fold change /veh JSRP1 (11732532_at) / RFU KRTAP10-11 (11738290_x_at) / Fold change /veh KRTAP10-11 (11738290_x_at) / RFU MYO3A (11730013_a_at) / Fold change /veh MYO3A (11730013_a_at) / RFU EBF3 (11725865_a_at) / Fold change /veh EBF3 (11725865_a_at) / RFU CAMK2N1 (11719241_x_at) / Fold change /veh CAMK2N1 (11719241_x_at) / RFU C5orf56 (11738088_a_at) / Fold change /veh C5orf56 (11738088_a_at) / RFU OLFML3 (11715873_a_at) / Fold change /veh OLFML3 (11715873_a_at) / RFU LOC100653217 /// NTM (11731650_a_at) / Fold change /veh LOC100653217 /// NTM (11731650_a_at) / RFU MAPK11 (11762145_a_at) / Fold change /veh MAPK11 (11762145_a_at) / RFU FIZ1 (11724087_x_at) / Fold change /veh FIZ1 (11724087_x_at) / RFU OASL (11726364_x_at) / Fold change /veh OASL (11726364_x_at) / RFU SOX15 (11748057_x_at) / Fold change /veh SOX15 (11748057_x_at) / RFU CD79A (11719716_a_at) / Fold change /veh CD79A (11719716_a_at) / RFU HIST1H1D (11736915_at) / Fold change /veh HIST1H1D (11736915_at) / RFU CASKIN2 (11723855_a_at) / Fold change /veh CASKIN2 (11723855_a_at) / RFU LOC730098 (11760151_x_at) / Fold change /veh LOC730098 (11760151_x_at) / RFU OR4N2 (11742367_at) / Fold change /veh OR4N2 (11742367_at) / RFU PRRT2 (11749266_a_at) / Fold change /veh PRRT2 (11749266_a_at) / RFU SNX32 (11753110_a_at) / Fold change /veh SNX32 (11753110_a_at) / RFU CDHR5 (11726645_a_at) / Fold change /veh CDHR5 (11726645_a_at) / RFU RCAN1 (11760418_a_at) / Fold change /veh RCAN1 (11760418_a_at) / RFU FAM167A (11723789_a_at) / Fold change /veh FAM167A (11723789_a_at) / RFU FAM26E (11764081_at) / Fold change /veh FAM26E (11764081_at) / RFU ISYNA1 (11749810_s_at) / Fold change /veh ISYNA1 (11749810_s_at) / RFU ACY1 (11761880_at) / Fold change /veh ACY1 (11761880_at) / RFU 11764098_at / Fold change /veh 11764098_at / RFU SAMD14 (11745864_x_at) / Fold change /veh SAMD14 (11745864_x_at) / RFU NPB (11741838_a_at) / Fold change /veh NPB (11741838_a_at) / RFU TMPRSS6 (11731388_a_at) / Fold change /veh TMPRSS6 (11731388_a_at) / RFU KRTAP10-2 (11738614_at) / Fold change /veh KRTAP10-2 (11738614_at) / RFU ARHGAP8 /// PRR5-ARHGAP8 (11727945_x_at) / Fold change /veh ARHGAP8 /// PRR5-ARHGAP8 (11727945_x_at) / RFU KRTAP5-7 /// NADSYN1 (11734609_at) / Fold change /veh KRTAP5-7 /// NADSYN1 (11734609_at) / RFU RASL12 (11751679_a_at) / Fold change /veh RASL12 (11751679_a_at) / RFU CDKN2B (11736163_a_at) / Fold change /veh CDKN2B (11736163_a_at) / RFU PRF1 (11729649_at) / Fold change /veh PRF1 (11729649_at) / RFU, ZNF638 /// ZNF638-IT1 / Fold change vs veh, ZNF638 /// ZNF638-IT1 / RFU, PANK3 / Fold change vs veh, PANK3 / RFU, SH3YL1 / Fold change vs veh, SH3YL1 / RFU, ZEB2 / Fold change vs veh, ZEB2 / RFU, NRIP1 / Fold change vs veh, NRIP1 / RFU, PTTG1IP / Fold change vs veh, PTTG1IP / RFU, CAPN2 / Fold change vs veh, CAPN2 / RFU, MED14 / Fold change vs veh, MED14 / RFU, SNORA58 / Fold change vs veh, SNORA58 / RFU, C1orf63 / Fold change vs veh, C1orf63 / RFU, LRRFIP1 / Fold change vs veh, LRRFIP1 / RFU, NDUFAF7 / Fold change vs veh, NDUFAF7 / RFU, SLC12A2 / Fold change vs veh, SLC12A2 / RFU, IBTK / Fold change vs veh, IBTK / RFU, ESF1 / Fold change vs veh, ESF1 / Fold change vs veh, TMEM50B / RFU, TAOK1 / Fold change vs veh, TAOK1 / RFU, ACBD3 / Fold change vs veh, ACBD3 / RFU, TMA16 / Fold change vs veh, TMA16 / RFU, RWDD3 / Fold change vs veh, RWDD3 / RFU, BCAT1 / Fold change vs veh, BCAT1 / RFU, EDEM3 / Fold change vs veh, EDEM3 / RFU, TMEM33 / Fold change vs veh, TMEM33 / RFU, WDR75 / Fold change vs veh, WDR75 / RFU, AHCTF1 / Fold change vs veh, AHCTF1 / RFU, TFRC / Fold change vs veh, TFRC / RFU, ZDHHC17 / Fold change vs veh, ZDHHC17 / RFU, NOM1 / Fold change vs veh, NOM1 / RFU, ARL8B / Fold change vs veh, ARL8B / RFU, ZBTB11 / Fold change vs veh, ZBTB11 / RFU, TAMM41 / Fold change vs veh, TAMM41 / RFU, KIAA1704 /// LOC100996395 / Fold change vs veh, KIAA1704 /// LOC100996395 / RFU, ING1 / Fold change vs veh, ING1 / RFU, TRMT61B / Fold change vs veh, TRMT61B / RFU, FUBP3 / Fold change vs veh, FUBP3 / RFU, TP53 / Fold change vs veh, TP53 / RFU, TNKS2 / Fold change vs veh, TNKS2 / RFU, ZFP14 / Fold change vs veh, ZFP14 / RFU, ACTR2 / Fold change vs veh, ACTR2 / RFU, PPP3R1 / Fold change vs veh, PPP3R1 / RFU, PIK3R1 / Fold change vs veh, PIK3R1 / RFU, HNRNPA1 / Fold change vs veh, HNRNPA1 / RFU, RNF170 / Fold change vs veh, RNF170 / RFU, ZNF28 / Fold change vs veh, ZNF28 / RFU, RNGTT / Fold change vs veh, RNGTT / RFU, OGT / Fold change vs veh, OGT / RFU, BRD1 / Fold change vs veh, BRD1 / RFU, MARS / Fold change vs veh, MARS / RFU, ZNF655 / Fold change vs veh, ZNF655 / RFU, FAHD1 / Fold change vs veh, FAHD1 / RFU, BDP1 / Fold change vs veh, BDP1 / RFU, LRRCC1 / Fold change vs veh, LRRCC1 / RFU, ARID1A / Fold change vs veh, ARID1A / RFU, ZNF146 / Fold change vs veh, ZNF146 / RFU, ZNF330 / Fold change vs veh, ZNF330 / RFU, GPN3 / Fold change vs veh, GPN3 / RFU, C9orf123 / Fold change vs veh, C9orf123 / RFU, N4BP2L2 / Fold change vs veh, N4BP2L2 / RFU, ARFIP1 / Fold change vs veh, ARFIP1 / RFU, FAM179B / Fold change vs veh, FAM179B / RFU, BCL10 / Fold change vs veh, BCL10 / RFU, UHRF1BP1L / Fold change vs veh, UHRF1BP1L / RFU, BET1 / Fold change vs veh, BET1 / RFU, CNOT2 / Fold change vs veh, CNOT2 / RFU, ZNF268 / Fold change vs veh, ZNF268 / Fold change vs veh, ZNF507 / RFU, DGCR2 / Fold change vs veh, DGCR2 / RFU, WDSUB1 / Fold change vs veh, WDSUB1 / Fold change vs veh, HSP90B1 /// MIR3652 / RFU, ADSS / Fold change vs veh, ADSS / RFU, GK / Fold change vs veh, GK / RFU, ZNF148 / Fold change vs veh, ZNF148 / RFU, TAF9 / Fold change vs veh, TAF9 / RFU, SLC1A5 / Fold change vs veh, SLC1A5 / RFU, SLMO2 / Fold change vs veh, SLMO2 / RFU, ABCC4 / Fold change vs veh, ABCC4 / RFU, LOC101060439 /// RAP1B / Fold change vs veh, LOC101060439 /// RAP1B / RFU, RFX7 / Fold change vs veh, RFX7 / RFU, GTPBP10 / Fold change vs veh, GTPBP10 / RFU, CNEP1R1 / Fold change vs veh, CNEP1R1 / RFU, BIVM-ERCC5 /// ERCC5 / Fold change vs veh, BIVM-ERCC5 /// ERCC5 / RFU, ILF3 / Fold change vs veh, ILF3 / RFU 11762660_at / Fold change /veh 11762660_at / RFU VCAN (11757783_s_at) / Fold change /veh VCAN (11757783_s_at) / RFU DDX43 (11728927_at) / Fold change /veh DDX43 (11728927_at) / RFU KRT8 (11758188_x_at) / Fold change /veh KRT8 (11758188_x_at) / RFU NKD1 (11759106_at) / Fold change /veh NKD1 (11759106_at) / RFU SRD5A1 (11742802_a_at) / Fold change /veh SRD5A1 (11742802_a_at) / RFU TPSAB1 /// TPSB2 (11721975_s_at) / Fold change /veh TPSAB1 /// TPSB2 (11721975_s_at) / RFU GSTM3 (11746129_a_at) / Fold change /veh GSTM3 (11746129_a_at) / RFU IL23R (11737362_x_at) / Fold change /veh IL23R (11737362_x_at) / RFU TMEM51 (11727254_a_at) / Fold change /veh TMEM51 (11727254_a_at) / RFU PIWIL2 (11732686_x_at) / Fold change /veh PIWIL2 (11732686_x_at) / RFU ORM1 (11744905_x_at) / Fold change /veh ORM1 (11744905_x_at) / RFU CCDC152 (11743942_at) / Fold change /veh CCDC152 (11743942_at) / RFU ECM1 (11717891_a_at) / Fold change /veh ECM1 (11717891_a_at) / RFU IL23R (11748794_a_at) / Fold change /veh IL23R (11748794_a_at) / RFU TNFAIP8L3 (11732012_x_at) / Fold change /veh TNFAIP8L3 (11732012_x_at) / RFU MBOAT4 (11741988_at) / Fold change /veh MBOAT4 (11741988_at) / RFU 11764193_at / Fold change /veh 11764193_at / RFU TMEM53 (11763286_at) / Fold change /veh TMEM53 (11763286_at) / RFU MAGEB2 (11727129_at) / Fold change /veh MAGEB2 (11727129_at) / RFU TMEM200A (11744735_a_at) / Fold change /veh TMEM200A (11744735_a_at) / RFU CCDC152 (11751479_a_at) / Fold change /veh CCDC152 (11751479_a_at) / RFU FAM211A (11726209_a_at) / Fold change /veh FAM211A (11726209_a_at) / RFU RGS16 (11746705_a_at) / Fold change /veh RGS16 (11746705_a_at) / RFU VCAN (11755009_s_at) / Fold change /veh VCAN (11755009_s_at) / RFU RHOB (11743442_s_at) / Fold change /veh RHOB (11743442_s_at) / RFU RGS16 (11720943_a_at) / Fold change /veh RGS16 (11720943_a_at) / RFU RGS16 (11720944_at) / Fold change /veh RGS16 (11720944_at) / RFU, VPS4B / Fold change vs veh, VPS4B / RFU, CREB1 / Fold change vs veh, CREB1 / RFU, DNAJC13 / Fold change vs veh, DNAJC13 / RFU, GNAQ / Fold change vs veh, GNAQ / RFU, CDK5R1 / Fold change vs veh, CDK5R1 / RFU, ZRANB3 / Fold change vs veh, ZRANB3 / RFU, CUL4A / Fold change vs veh, CUL4A / RFU, CCNY / Fold change vs veh, CCNY / RFU, UFL1 / Fold change vs veh, UFL1 / RFU, COG3 / Fold change vs veh, COG3 / RFU, DIAPH2 / Fold change vs veh, DIAPH2 / RFU, SKA2 / Fold change vs veh, SKA2 / RFU, AFF3 / Fold change vs veh, AFF3 / RFU, LMF1 / Fold change vs veh, LMF1 / RFU, IPO11 / Fold change vs veh, IPO11 / RFU, DFFB / Fold change vs veh, DFFB / RFU, FOXP1 / Fold change vs veh, FOXP1 / RFU, CARD8 / Fold change vs veh, CARD8 / RFU, STRN3 / Fold change vs veh, STRN3 / RFU, ADK / Fold change vs veh, ADK / RFU, RASSF2 / Fold change vs veh, RASSF2 / RFU, WIPF1 / Fold change vs veh, WIPF1 / RFU, LARP1B / Fold change vs veh, LARP1B / RFU, RASA1 / Fold change vs veh, RASA1 / RFU, RB1 / Fold change vs veh, RB1 / RFU, PPFIA1 / Fold change vs veh, PPFIA1 / RFU, MAT2A / Fold change vs veh, MAT2A / RFU, CCT5 / Fold change vs veh, CCT5 / RFU, WDR92 / Fold change vs veh, WDR92 / RFU, CUX1 / Fold change vs veh, CUX1 / RFU, TTC7A / Fold change vs veh, TTC7A / RFU, TMEM135 / Fold change vs veh, TMEM135 / RFU, DEPTOR / Fold change vs veh, DEPTOR / RFU, CPM / Fold change vs veh, CPM / RFU, DNAJB6 / Fold change vs veh, DNAJB6 / RFU, CACNA2D3 / Fold change vs veh, CACNA2D3 / RFU, DTX4 / Fold change vs veh, DTX4 / RFU, TFCP2 / Fold change vs veh, TFCP2 / RFU, GMCL1 /// GMCL1P1 / Fold change vs veh, GMCL1 /// GMCL1P1 / RFU, AEBP2 / Fold change vs veh, AEBP2 / RFU, SNHG1 /// SNORD22 /// SNORD25 /// SNORD26 /// SNORD27 /// SNORD28 /// SNORD29 /// SNORD31 / Fold change vs veh, SNHG1 /// SNORD22 /// SNORD25 /// SNORD26 /// SNORD27 /// SNORD28 /// SNORD29 /// SNORD31 / Fold change (Aza/veh), C12orf56 (ProbeSet 11735607_a_at) / Fold change (ACY-1035/veh), C12orf56 (ProbeSet 11735607_a_at) / Fold change (Aza/veh), FGFR1OP (ProbeSet 11751329_s_at) / Fold change (ACY-1035/veh), FGFR1OP (ProbeSet 11751329_s_at) / Fold change (Aza/veh), VPS36 (ProbeSet 11739960_a_at) / Fold change (ACY-1035/veh), VPS36 (ProbeSet 11739960_a_at) / RFU SYPL1 (11715823_x_at) / Fold change /veh SYPL1 (11715823_x_at) / RFU IGFBP7 (11715501_s_at) / Fold change /veh IGFBP7 (11715501_s_at) / RFU REEP3 (11722064_at) / Fold change /veh REEP3 (11722064_at) / RFU IGLL1 (11728026_x_at) / Fold change /veh IGLL1 (11728026_x_at): dose or concentration left out as unconfirmed
Conditions: ProbeSet 11725141_a_at; LIST B

In the case of `Nc1ccc(-c2cccs2)cc1NC(=O)c1ccc2c(c1)cc(C1CC1)n2CCN1CCOCC1` [ACY-1035], the “RFU, FUBP3” value is reported as 490.19 RFU.

From publication PMC5218480 (PLoS ONE, 2017)
